pKi: −log10 of the molar value.

This assay in a line: Inhibition of SARS-CoV 3C-like protease using Dabcyl-KTSAVLQ-SGFRKME-Edans peptide as substrate incubated for 60 mins by FRET assay.
For `COc1cccc2[nH]c(C(=O)N[C@@H](CC(C)C)C(=O)N[C@@H](C[C@@H]3CCNC3=O)C(=O)COC(=O)CN(C)C)cc12`, the pKi is 8.53. `COc1cccc2[nH]c(C(=O)N[C@@H](CC(C)C)C(=O)N[C@@H](C[C@@H]3CCNC3=O)C(=O)COC(=O)c3ccncc3)cc12` had a pKi of 9.22.

Molecule `COc1cccc2[nH]c(C(=O)N[C@@H](CC(C)C)C(=O)N[C@@H](C[C@@H]3CCNC3=O)C(=O)COC(=O)[C@@H]3CCCN3C)cc12` had a pKi of 8.61. As for `COc1cccc2[nH]c(C(=O)N[C@@H](CC(C)C)C(=O)N[C@@H](C[C@@H]3CCNC3=O)C(=O)COC(=O)[C@H]3CCCCN3C)cc12`, the figure is 8.85; as for `COc1cccc2[nH]c(C(=O)N[C@@H](CC(C)C)C(=O)N[C@@H](C[C@@H]3CCNC3=O)C(=O)COC(=O)[C@H]3CCCN3C)cc12`, 10.49; as for `COc1cccc2[nH]c(C(=O)N[C@@H](CC(C)C)C(=O)N[C@@H](C[C@@H]3CCNC3=O)C(=O)COC(=O)c3c(C)ncnc3C)cc12`, 9.03.

For orientation: pKi means the Ki on a negative log10 scale, so that one unit is a factor of ten. Lower therefore signals a large Ki.
